Experimental data: patent US11919900B1 (priority 2023, dated 2024)
Converted amounts (≈) assume the structure as drawn.

System: Mycobacterium tuberculosis H37Rv (ATCC: 25177)
Test: Resazurin Microplate Assay (REMA), antitubercular activity, H37Rv
Format: cell-based
Settings: Middlebrook 7H9 broth, 8 days at 37° C. then resazurin overnight

**Q.** Which “Antitubercular activity against Mycobacterium tuberculosis H37Rv (MIC)” value does the source give for “Ethyl 4-bromo-1-(2-nitrobenzoyl)pyrrolo[1,2-a]quinoline-3-carboxylate [QUIN-KNV12]” here?
**A.** The value was 1 µg/mL.

Same assay, conditions: Mycobacterium tuberculosis, 192 h, Middlebrook 7H9 broth, 8 days at 37° C. then resazurin overnight, read-out: Antitubercular activity against Mycobacterium tuberculosis H37Rv (MIC)

**Q.** With `COC(=O)c1c(C(=O)OC)c2c(Br)cc3ccccc3n2c1C(=O)c1ccc(OC)cc1` [QUIN-KNV1, Dimethyl 4-bromo-1-(4-methoxybenzoyl)pyrrolo[1,2-a]quinoline-2,3-dicarboxylate] as the compound, how does the MIC read?
**A.** Its MIC is 0.5 µg/mL (≈ 1.01 µM).

**Q.** How did the MIC turn out when `CCOC(=O)c1cc(C(=O)c2ccc(OC)cc2)n2c1c(Br)cc1ccccc12` [QUIN-KNV2, Ethyl 4-bromo-1-(4-methoxybenzoyl)pyrrolo[1,2-a]quinoline-3-carboxylate] was run?
**A.** The MIC was 1 µg/mL (≈ 2.21 µM).

**Q.** `COC(=O)c1c(C(=O)OC)c2c(Br)cc3ccccc3n2c1C(=O)c1ccc(Cl)cc1` [QUIN-KNV3, Dimethyl 4-bromo-1-(4-chlorobenzoyl)pyrrolo[1,2-a]quinoline-2,3-dicarboxylate] was tested. Which MIC did it give?
**A.** Its MIC is 1 µg/mL (≈ 2 µM).

**Q.** Which MIC does the source give for `CCOC(=O)c1cc(C(=O)c2ccc(Cl)cc2)n2c1c(Br)cc1ccccc12` [QUIN-KNV4, Ethyl 4-bromo-1-(4-chlorobenzoyl)pyrrolo[1,2-a]quinoline-3-carboxylate] here?
**A.** The MIC was 8 µg/mL (≈ 17.5 µM).

**Q.** With `COC(=O)c1c(C(=O)OC)c2c(Br)cc3ccccc3n2c1C(=O)c1ccc(Br)cc1` [QUIN-KNV5, Dimethyl 4-bromo-1-(4-bromobenzoyl)pyrrolo[1,2-a]quinoline-2,3-dicarboxylate] as the compound, how does the MIC read?
**A.** Its MIC is 0.5 µg/mL (≈ 0.917 µM).

**Q.** For `CCOC(=O)c1cc(C(=O)c2ccc(Br)cc2)n2c1c(Br)cc1ccccc12` [QUIN-KNV6, Ethyl 4-bromo-1-(4-bromobenzoyl)pyrrolo[1,2-a]quinoline-3-carboxylate], which MIC is on record?
**A.** The MIC was 2 µg/mL (≈ 3.99 µM).

**Q.** How did the MIC turn out when `COC(=O)c1c(C(=O)OC)c2c(Br)cc3ccccc3n2c1C(=O)c1ccc(F)cc1` [QUIN-KNV7, Dimethyl 4-bromo-1-(4-fluorobenzoyl)pyrrolo[1,2-a]quinoline-2,3-dicarboxylate] was run?
**A.** The MIC was 16 µg/mL (≈ 33 µM).

**Q.** Which MIC does the source give for `CCOC(=O)c1cc(C(=O)c2ccc(F)cc2)n2c1c(Br)cc1ccccc12` [QUIN-KNV8, Ethyl 4-bromo-1-(4-fluorobenzoyl)pyrrolo[1,2-a]quinoline-3-carboxylate] here?
**A.** Its MIC is 1 µg/mL (≈ 2.27 µM).

**Q.** Which MIC does the source give for `COC(=O)c1c(C(=O)OC)c2c(Br)cc3ccccc3n2c1C(=O)c1ccc(C#N)cc1` [QUIN-KNV9, Dimethyl 4-bromo-1-(4-cyanobenzoyl)pyrrolo[1,2-a]quinoline-2,3-dicarboxylate] here?
**A.** The MIC was 8 µg/mL (≈ 16.3 µM).

**Q.** For `CCOC(=O)c1cc(C(=O)c2ccc(C#N)cc2)n2c1c(Br)cc1ccccc12` [QUIN-KNV10, Ethyl 4-bromo-1-(4-cyanobenzoyl)pyrrolo[1,2-a]quinoline-3-carboxylate], which MIC is on record?
**A.** Its MIC is 8 µg/mL (≈ 17.9 µM).

**Q.** For `COC(=O)c1c(C(=O)OC)c2c(Br)cc3ccccc3n2c1C(=O)c1ccccc1` [QUIN-KNV11, Dimethyl 1-benzoyl-4-bromopyrrolo[1,2-a]quinoline-2,3-dicarboxylate], which MIC is on record?
**A.** The MIC was 32 µg/mL (≈ 68.6 µM).
